Patent US20020137929A1, “1 - (3-heterocyclylphenyl) isothiourea, -isourea, -guanidine and -amidine herbicidal agents” (Intellectual Property Department, BASF Aktiengesellschaft, priority 1998, published 2002)

Legend:
ECHCG (Barnyardgrass) [1] = assay: Postemergence herbicidal evaluation; format: in vivo, Echinochloa crus-galli
In short: (§1)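 Scores (0–9) reflect plant stand, vigor, malformation, size, chlorosis and general appearance relative to control, read 4 to 5 weeks after treatment and averaged where tests were repeated. Application: about 0.0156–0.500 kg/ha sprayed at 40 psi onto two-week seedlings.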

CASOB (Sicklepod) = assay: Preemergence herbicidal evaluation; format: in vivo, Cassia obtusifolia; conditions: rated 4-5 weeks after treatment
In short: (§2)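 Sown cups got a single aqueous acetone spray of test compound (roughly 0.0156–0.500 kg/ha) before seedlings emerged. Evaluation, 4–5 weeks on, used a 0–9 visual scale covering plant stand, vigor, size, malformation, chlorosis and general appearance compared with controls.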

ZEAMX (Corn, Field) [2] = assay: Preemergence herbicidal evaluation; format: in vivo, Zea mays; conditions: rated 4-5 weeks after treatment
In short: as §2

[3] = test system: CHEAL (Lambsquarters, Common); assay: Postemergence herbicidal evaluation; format: in vivo, Chenopodium album
In short: as §1

ECHCG (Barnyardgrass) [4] = assay: Preemergence herbicidal evaluation; format: in vivo, Echinochloa crus-galli; conditions: rated 4-5 weeks after treatment
In short: as §2

SETVI (Foxtail, Green) = assay: Postemergence herbicidal evaluation; format: in vivo, Setaria viridis
In short: as §1

[5] = test system: GLXMAW (Soybean, Williams); assay: Preemergence herbicidal evaluation; format: in vivo, Glycine max, (L.) Merr. cv Williams; conditions: rated 4-5 weeks after treatment
In short: as §2

[6] = test system: IPOHE (Morningglory, Ivyleaf); assay: Postemergence herbicidal evaluation; format: in vivo, Ipomoea hederacea
In short: as §1

[7] = test system: IPOHE (Morningglory, Ivyleaf); assay: Preemergence herbicidal evaluation; format: in vivo, Ipomoea hederacea; conditions: rated 4-5 weeks after treatment
In short: as §2

ZEAMX (Corn, Field) [8] = assay: Postemergence herbicidal evaluation; format: in vivo, Zea mays
In short: as §1

[9] = test system: TRZAWR (Wheat, Winter, cv Riband); assay: Preemergence herbicidal evaluation; format: in vivo, Triticum aestivum; conditions: rated 4-5 weeks after treatment
In short: as §2

ORYSAT (Rice, Tebonnet) = assay: Postemergence herbicidal evaluation; format: in vivo, Oryza sativa, (L.) Tebonnet
In short: as §1

[10] = test system: CHEAL (Lambsquarters, Common); assay: Preemergence herbicidal evaluation; format: in vivo, Chenopodium album; conditions: rated 4-5 weeks after treatment
In short: as §2

ABUTH (Velvetleaf) [11] = assay: Postemergence herbicidal evaluation; format: in vivo, Abutilon theophrasti
In short: as §1

ABUTH (Velvetleaf) [12] = assay: Preemergence herbicidal evaluation; format: in vivo, Abutilon theophrasti; conditions: rated 4-5 weeks after treatment
In short: as §2

## COCCCN1C(=O)CSC1=Nc1cc(-n2c(=O)cc(C(F)(F)F)n(C)c2=O)c(F)cc1Cl [Compound 172, 3-{4-Chloro-2-fluoro-5-{[3-(3-methoxypropyl)-4-oxo-2-thiazolidinylidene]amino}phenyl}-1-methyl-6-(trifluoromethyl)-2,4(1H, 3H)-pyrimidinedione]
ECHCG (Barnyardgrass) [1]; Rate 0.0313 kg/ha
  Postemergence herbicidal rating ECHCG: 3.0
ECHCG (Barnyardgrass) [1]; Rate 0.0625 kg/ha
  Postemergence herbicidal rating ECHCG: 3.0
ECHCG (Barnyardgrass) [1]; rate 0.0156 kg/ha
  Postemergence herbicidal rating ECHCG: 2.0
CASOB (Sicklepod); 0.0156 kg/ha
  Preemergence herbicidal rating CASOB: 1.0
CASOB (Sicklepod); 0.0313 kg/ha
  Preemergence herbicidal rating CASOB: 3.0
CASOB (Sicklepod); 0.0625 kg/ha
  Preemergence herbicidal rating CASOB: 7.0
CASOB (Sicklepod); 0.1250 kg/ha
  Preemergence herbicidal rating CASOB: 9.0
CASOB (Sicklepod); 0.2500 kg/ha
  Preemergence herbicidal rating CASOB: 9.0
ZEAMX (Corn, Field) [2]; 0.0156 kg/ha
  Preemergence herbicidal rating ZEAMX: 4.0
ZEAMX (Corn, Field) [2]; 0.0313 kg/ha
  Preemergence herbicidal rating ZEAMX: 7.0
ZEAMX (Corn, Field) [2]; 0.0625 kg/ha
  Preemergence herbicidal rating ZEAMX: 8.0
ZEAMX (Corn, Field) [2]; 0.1250 kg/ha
  Preemergence herbicidal rating ZEAMX: 9.0
ZEAMX (Corn, Field) [2]; 0.2500 kg/ha
  Preemergence herbicidal rating ZEAMX: 9.0
[3]; Rate 0.0313 kg/ha
  Postemergence herbicidal rating CHEAL: 9.0
[3]; Rate 0.0625 kg/ha
  Postemergence herbicidal rating CHEAL: 9.0
[3]; rate 0.0156 kg/ha
  Postemergence herbicidal rating CHEAL: 6.0
ECHCG (Barnyardgrass) [4]; 0.0156 kg/ha
  Preemergence herbicidal rating ECHCG: 4.0
ECHCG (Barnyardgrass) [4]; 0.0313 kg/ha
  Preemergence herbicidal rating ECHCG: 6.0
ECHCG (Barnyardgrass) [4]; 0.0625 kg/ha
  Preemergence herbicidal rating ECHCG: 8.0
ECHCG (Barnyardgrass) [4]; 0.1250 kg/ha
  Preemergence herbicidal rating ECHCG: 8.0
ECHCG (Barnyardgrass) [4]; 0.2500 kg/ha
  Preemergence herbicidal rating ECHCG: 9.0
SETVI (Foxtail, Green); Rate 0.0313 kg/ha
  Postemergence herbicidal rating SETVI: 3.0
SETVI (Foxtail, Green); Rate 0.0625 kg/ha
  Postemergence herbicidal rating SETVI: 2.0
SETVI (Foxtail, Green); rate 0.0156 kg/ha
  Postemergence herbicidal rating SETVI: 2.0
[5]; 0.0156 kg/ha
  Preemergence herbicidal rating GLXMAW: 1.0
[5]; 0.0313 kg/ha
  Preemergence herbicidal rating GLXMAW: 2.0
[5]; 0.0625 kg/ha
  Preemergence herbicidal rating GLXMAW: 7.0
[5]; 0.1250 kg/ha
  Preemergence herbicidal rating GLXMAW: 9.0
[5]; 0.2500 kg/ha
  Preemergence herbicidal rating GLXMAW: 9.0
[6]; Rate 0.0313 kg/ha
  Postemergence herbicidal rating IPOHE: 9.0
[6]; Rate 0.0625 kg/ha
  Postemergence herbicidal rating IPOHE: 9.0
[6]; rate 0.0156 kg/ha
  Postemergence herbicidal rating IPOHE: 9.0
[7]; 0.0156 kg/ha
  Preemergence herbicidal rating IPOHE: 2.0
[7]; 0.0313 kg/ha
  Preemergence herbicidal rating IPOHE: 7.0
[7]; 0.0625 kg/ha
  Preemergence herbicidal rating IPOHE: 7.0
[7]; 0.1250 kg/ha
  Preemergence herbicidal rating IPOHE: 9.0
[7]; 0.2500 kg/ha
  Preemergence herbicidal rating IPOHE: 9.0
ZEAMX (Corn, Field) [8]; Rate 0.0313 kg/ha
  Postemergence herbicidal rating ZEAMX: 5.0
ZEAMX (Corn, Field) [8]; Rate 0.0625 kg/ha
  Postemergence herbicidal rating ZEAMX: 5.0
ZEAMX (Corn, Field) [8]; rate 0.0156 kg/ha
  Postemergence herbicidal rating ZEAMX: 5.0
[9]; 0.0156 kg/ha
  Preemergence herbicidal rating TRZAWR: 2.0
[9]; 0.0313 kg/ha
  Preemergence herbicidal rating TRZAWR: 3.0
[9]; 0.0625 kg/ha
  Preemergence herbicidal rating TRZAWR: 7.0
[9]; 0.1250 kg/ha
  Preemergence herbicidal rating TRZAWR: 7.0
[9]; 0.2500 kg/ha
  Preemergence herbicidal rating TRZAWR: 9.0
ORYSAT (Rice, Tebonnet); Rate 0.0313 kg/ha
  Postemergence herbicidal rating ORYSAT: 3.5
ORYSAT (Rice, Tebonnet); Rate 0.0625 kg/ha
  Postemergence herbicidal rating ORYSAT: 4.0
ORYSAT (Rice, Tebonnet); rate 0.0156 kg/ha
  Postemergence herbicidal rating ORYSAT: 3.5
[10]; 0.0156 kg/ha
  Preemergence herbicidal rating CHEAL: 9.0
[10]; 0.0313 kg/ha
  Preemergence herbicidal rating CHEAL: 9.0
[10]; 0.0625 kg/ha
  Preemergence herbicidal rating CHEAL: 9.0
[10]; 0.1250 kg/ha
  Preemergence herbicidal rating CHEAL: 9.0
[10]; 0.2500 kg/ha
  Preemergence herbicidal rating CHEAL: 9.0
ABUTH (Velvetleaf) [11]; Rate 0.0313 kg/ha
  Postemergence herbicidal rating ABUTH: 9.0
ABUTH (Velvetleaf) [11]; Rate 0.0625 kg/ha
  Postemergence herbicidal rating ABUTH: 9.0
ABUTH (Velvetleaf) [11]; rate 0.0156 kg/ha
  Postemergence herbicidal rating ABUTH: 9.0
ABUTH (Velvetleaf) [12]; 0.0156 kg/ha
  Preemergence herbicidal rating ABUTH: 9.0
ABUTH (Velvetleaf) [12]; 0.0313 kg/ha
  Preemergence herbicidal rating ABUTH: 9.0
ABUTH (Velvetleaf) [12]; 0.0625 kg/ha
  Preemergence herbicidal rating ABUTH: 9.0
ABUTH (Velvetleaf) [12]; 0.1250 kg/ha
  Preemergence herbicidal rating ABUTH: 9.0
ABUTH (Velvetleaf) [12]; 0.2500 kg/ha
  Preemergence herbicidal rating ABUTH: 9.0
